Laboratory results as given in the supplement of paper PMC10307832.

Columns and labels:
Assay in all cases: relative viability (nuclei count vs DMSO), 5 days (fraction); higher = more cells survive
AZD1208 + OSI-027 = compound: N[C@@H]1CCCN(c2c(/C=C3\SC(=O)NC3=O)cccc2-c2ccccc2)C1 [AZD1208] + COc1cccc2cc(-c3nc([C@H]4CC[C@H](C(=O)O)CC4)n4ncnc(N)c34)[nH]c12 [OSI-027] (partner 0.5 µM)
Outline: (§1)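 Relative viability was taken as the ratio of nuclei in treated wells to nuclei in vehicle wells. Lung cancer cell lines in 1536-well plates received compounds by pin tool one day after seeding, either one drug alone or a fixed anchor-drug dose plus five library-drug doses (not always all listed) in √10 steps. Nuclei were counted on 4× images after 5 days of treatment, and values are medians of duplicate plates.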

AZD1208 + Vorinostat = compound: N[C@@H]1CCCN(c2c(/C=C3\SC(=O)NC3=O)cccc2-c2ccccc2)C1 [AZD1208] + O=C(CCCCCCC(=O)Nc1ccccc1)NO [Vorinostat] (partner 1 µM)
Outline: as §1

XMD14-99 + Dasatinib = compound: CN1CCN(CC1)C2=CC(=C(C=C2)NC3=NC(=C(S3)C(=O)C4=C(C=CC=C4Cl)Cl)N)OC [XMD14-99] + Cc1nc(Nc2ncc(C(=O)Nc3c(C)cccc3Cl)s2)cc(N2CCN(CCO)CC2)n1 [Dasatinib] (partner 0.075 µM)
Outline: as §1

AZD1208 + Alpelisib = compound: N[C@@H]1CCCN(c2c(/C=C3\SC(=O)NC3=O)cccc2-c2ccccc2)C1 [AZD1208] + Cc1nc(NC(=O)N2CCC[C@H]2C(N)=O)sc1-c1ccnc(C(C)(C)C(F)(F)F)c1 [Alpelisib] (partner 2 µM)
Outline: as §1

Row | Cell Line | relative viability (AZD1208 + OSI-027; first compound 0.08 µM) | relative viability (AZD1208 + OSI-027; first compound 0.253 µM) | relative viability (AZD1208 + OSI-027; first compound 0.8 µM) | relative viability (AZD1208 + OSI-027; first compound 2.53 µM) | relative viability (AZD1208 + OSI-027; first compound 8 µM) | relative viability (AZD1208 + Vorinostat; first compound 0.08 µM) | relative viability (AZD1208 + Vorinostat; first compound 0.253 µM) | relative viability (AZD1208 + Vorinostat; first compound 0.8 µM) | relative viability (AZD1208 + Vorinostat; first compound 2.53 µM) | relative viability (AZD1208 + Vorinostat; first compound 8 µM) | relative viability (XMD14-99 + Dasatinib; first compound 0.08 µM) | relative viability (XMD14-99 + Dasatinib; first compound 0.8 µM) | relative viability (XMD14-99 + Dasatinib; first compound 2.53 µM) | relative viability (XMD14-99 + Dasatinib; first compound 8 µM) | relative viability (AZD1208 + Alpelisib; first compound 0.08 µM) | relative viability (AZD1208 + Alpelisib; first compound 0.253 µM) | relative viability (AZD1208 + Alpelisib; first compound 0.8 µM) | relative viability (AZD1208 + Alpelisib; first compound 2.53 µM) | relative viability (AZD1208 + Alpelisib; first compound 8 µM)
1 | NCI-H522 | 0.771 | 0.575 | 0.618 | 0.691 | 0.701 | 0.691 | 0.75 | 0.768 | 0.828 | 0.836 | 0.821 | 0.93 | 0.83 | 0.805 |  |  |  |  | 
2 | HCC-15 | 0.63 | 0.673 | 0.491 | 0.467 | 0.437 | 0.805 | 0.859 | 0.834 | 0.83 | 0.692 | 0.601 | 0.65 | 0.548 | 0.431 | 0.742 | 0.823 | 0.557 | 0.664 | 0.584
3 | A-427 | 0.453 | 0.543 | 0.469 | 0.41 | 0.378 | 0.873 | 0.913 | 0.836 | 0.906 | 0.828 | 0.624 | 0.651 | 0.545 | 0.479 | 1.02 | 1.07 | 1.02 | 1.02 | 0.97
4 | NCI-H23 | 0.576 | 0.705 | 0.523 | 0.37 | 0.382 | 0.508 | 0.629 | 0.614 | 0.602 | 0.5 | 0.787 | 0.777 | 0.724 | 0.636 | 0.658 | 0.58 | 0.493 | 0.564 | 0.561
5 | NCI-H1734 | 0.51 | 0.534 | 0.495 | 0.468 | 0.342 | 0.731 | 0.739 | 0.756 | 0.663 | 0.599 | 0.394 | 0.448 | 0.481 | 0.423 | 0.614 | 0.619 | 0.557 | 0.556 | 0.434
6 | NCI-H1993 | 0.599 | 0.447 | 0.616 | 0.491 | 0.536 | 0.584 | 0.63 | 0.726 | 0.548 | 0.501 | 0.656 | 0.539 | 0.457 | 0.489 |  | 0.608 | 0.683 | 0.737 | 0.63
7 | PC-3 [JPC-3] | 0.8 | 0.698 | 0.762 | 0.702 | 0.628 | 1.13 | 0.746 | 0.857 | 0.909 | 0.926 | 0.915 | 0.972 | 0.99 | 0.907 | 1.07 | 1.07 | 1 | 1.1 | 0.946
8 | NCI-H1915 | 0.571 | 0.524 | 0.569 | 0.428 | 0.451 | 0.545 | 0.512 | 0.525 | 0.464 | 0.434 | 0.28 | 0.289 | 0.293 | 0.236 | 1.05 | 1.09 | 1.05 | 1.03 | 1.03
9 | NCI-H1666 | 0.779 | 0.829 | 0.682 | 0.826 | 0.775 | 1.06 | 1.02 | 0.887 | 0.966 | 0.908 | 0.826 | 0.803 | 0.743 | 0.59 | 0.815 | 0.821 | 0.577 | 0.765 | 0.894
